Measurements from patent US12215106B2, “Pharmaceutical compounds and therapeutic methods” (RUTGERS, THE STATE UNIVERSITY OF NEW JERSEY, priority 2018, dated 2025).
Counter-ions that a name gives are not always drawn. Like-named read-outs stand apart in the source and are kept apart here. Marks after values point to notes of the source that are not given here.

Experiment: Plasma pharmacokinetics and brain distribution after single IV, IP and oral administration
Format: in vivo
Conditions: male, C57BL/6, mouse
Experimental: The objective of this study was to investigate the plasma pharmacokinetics and brain distribution of Compound (14 in male C57BL/6 mice following a single intravenous, intraperitoneal and oral administration. A group of sixty-three male mice were divided into three groups (Group 1: 2 mg/kg/IV; Group 2: 10 mg/kg/IP and Group 3: 10 mg/kg/PO) with each group comprising of twenty-one mice.
Animals in Group 1 were administered intravenously with Compound 15 solution formulation in 5% NMP, 5% Solutol HS-15, 30% PEG-400 and 60% Captisol (20% w/v) at 2 mg/kg dose. […] Considering mortality intravenous dose was reduced to 2 mg/kg.
Animals in Group 2 and 3 were administered with Compound 15 solution formulation in 5% NMP, 5% Solutol HS-15, 30% PEG-400 and 60% Captisol (20% w/v) at a dose of 10 mg/kg by intraperitoneal and oral route respectively.
(§1) Blood samples (approximately 60 μL) were collected under light isoflurane anesthesia from retro orbital plexus from a set of three mice at 0.08, 0.35, 1, 3, 6, 12 and 24 hr. Plasma samples were separated by centrifugation of whole blood and stored below −70±10° C. until bioanalysis. Immediately after collection of blood, brain samples were collected from set of three mice at each time point. Brain samples were homogenized using ice-cold phosphate buffer saline (pH-7.4) in a ratio of 2 (buffer):1(brain); and homogenates were stored below −70±10° C. until analysis. Total homogenate volume was three times the brain weight. All samples were processed for analysis by protein precipitation using acetonitrile and analyzed with fit-for-purpose LC/MS/MS method (LLOQ2.00 ng/mL for plasma and 3.00 ng/g for brain). Pharmacokinetic parameters were calculated using the non-compartmental analysis tool of Phoenix WinNonlin® (Version 7.0). Pharmacokinetic parameters of Compound 15 are summarized below.
The objective of this study was to investigate the plasma pharmacokinetics and brain distribution of Compound 16 in male C57BL/6 mice following a single intravenous, intraperitoneal and oral administration. A group of sixty-three male mice were divided into three groups (Group 1: 10 mg/kg/IV; Group 2: 10 mg/kg/IP and Group 3: 10 mg/kg/PO) with each group comprising of twenty-one mice.
Animals in Group 1 were administered intravenously with Compound 16 solution formulation in 5% NMP, 5% Solutol HS-15 and 90% normal saline at 10 mg/kg dose.
Animals in Group 2 and 3 were administered with Compound 16 solution formulation in 5% NMP, 5% Solutol HS-15 and 90% normal saline at a dose of 10 mg/kg by intraperitoneal and oral route respectively.
as §1, with “(LLOQ—1.00” for “(LLOQ2.00”, “16” for “15”
The objective of this study was to investigate the plasma pharmacokinetics and brain distribution of Compound 17 in male C57BL/6 mice following a single intravenous, intraperitoneal and oral administration. A group of sixty-three male mice were divided into three groups (Group 1: 2 mg/kg/IV; Group 2: 10 mg/kg/IP and Group 3: 10 mg/kg/PO) with each group comprising of twenty-one mice. […]

[1] = brain, ip, 10 mg/kg, IP 10 mg/kg, read-out: Brain-to-plasma ratio
[2] = brain, po, 10 mg/kg, PO 10 mg/kg, read-out: Brain-to-plasma ratio
[3] = brain/plasma, iv, 10 mg/kg, IV 10 mg/kg, read-out: Brain-to-plasma ratio
[4] = in vivo, ip, 10 mg/kg, Brain concentration, individual animal
[5] = in vivo, ip, 10 mg/kg, Mean brain conc.
[6] = in vivo, ip, 10 mg/kg, Mean plasma conc.
[7] = in vivo, ip, 10 mg/kg, Plasma concentration, individual animal
[8] = in vivo, iv, 10 mg/kg, Brain concentration, individual animal
[9] = in vivo, iv, 10 mg/kg, Mean brain conc.
[10] = in vivo, iv, 10 mg/kg, Mean plasma conc.
[11] = in vivo, iv, 10 mg/kg, Plasma concentration, individual animal
[12] = in vivo, po, 10 mg/kg, Brain concentration, individual animal
[13] = in vivo, po, 10 mg/kg, Mean brain conc.
[14] = in vivo, po, 10 mg/kg, Mean plasma conc.
[15] = in vivo, po, 10 mg/kg, Plasma concentration, individual animal

## Cc1nc2ccccn2c1-c1csc(Nc2ccc3c(c2)OC(F)(F)O3)n1 [Compound 16, N-(2,2-difluorobenzo[d][1,3]dioxol-5-yl)-4-(2-methylimidazo[1,2-a]pyridin-3-yl)thiazol-2-amine hydrochloride]
Brain and plasma, iv, 10 mg/kg, IV 10 mg/kg, read-out: Brain-to-plasma ratio
  Kp at 3 h: 1.6
[1]
  Kp at 0.08 h: 0.78
  Kp at 0.35 h: 1.6
  Kp at 1 h: 2.01
  Kp at 3 h: 4.34
brain, ip, 10 mg/kg, IP 10 mg/kg, read-out: brain-to-plasma ratio, range over time
  Kp: 0.78 to 4.34
brain, iv, 10 mg/kg, IV 10 mg/kg, read-out: brain-to-plasma ratio, range over time
  Kp: 0.96 to 2.78
[2]
  Kp at 0.08 h: 1.07
  Kp at 0.35 h: 1.83
  Kp at 1 h: 1.67
  Kp at 3 h: 1.73
brain, po, 10 mg/kg, PO 10 mg/kg, 6 hr, read-out: Brain-to-plasma ratio
  Kp at 6 h: 1.81
brain, po, 10 mg/kg, PO 10 mg/kg, read-out: brain-to-plasma ratio, range over time
  Kp: 1.07 to 1.81
brain, po, 10 mg/kg, summary data, read-out: Brain to plasma ratio following a single oral dose
  Kp: 1.81
[3]
  Kp at 0.08 h: 1.05
  Kp at 0.35 h: 0.96
  Kp at 1 h: 2.78
In vivo, ip, 10 mg/kg
  Brain concentrations quantifiable up to: up to 3 hr
  Plasma concentrations quantifiable up to: up to 3 hr
In vivo, ip, 10 mg/kg, 6 h
  Brain concentration, individual animal: 0.00 ng/g
  Plasma concentration, individual animal: 0.00 ng/mL
In vivo, ip, 10 mg/kg, 12 h
  Brain concentration, individual animal: 0.00 ng/g
  Plasma concentration, individual animal: 0.00 ng/mL
In vivo, ip, 10 mg/kg, 24 h
  Brain concentration, individual animal: 0.00 ng/g
  Plasma concentration, individual animal: 0.00 ng/mL
[4]
  concentration at 6 h: 0 ng/g
  concentration at 12 h: 0 ng/g
  concentration at 24 h: 0 ng/g
[5]
  concentration at 0.08 h: 558 ng/g
  concentration at 0.35 h: 680 ng/g
  concentration at 1 h: 159 ng/g
  concentration at 3 h: 6.21 ng/g
  concentration at 6 h: 0 ng/g
  concentration at 12 h: 0 ng/g
  concentration at 24 h: 0 ng/g
[6]
  concentration at 0.08 h: 713 ng/mL
  concentration at 0.35 h: 426 ng/mL
  concentration at 1 h: 79.1 ng/mL
  concentration at 3 h: 1.43 ng/mL
  concentration at 6 h: 0 ng/mL
  concentration at 12 h: 0 ng/mL
  concentration at 24 h: 0 ng/mL
[7]
  concentration at 0.08 h: 688 ng/mL
  concentration at 0.35 h: 391 ng/mL
  concentration at 1 h: 62 ng/mL
  concentration at 6 h: 0 ng/mL
  concentration at 12 h: 0 ng/mL
  concentration at 24 h: 0 ng/mL
In vivo, iv, 10 mg/kg
  Brain concentrations quantifiable up to: up to 6 hr
  Vss, fold more than normal volume of total body water (0.7 L/kg): 6.6 fold
In vivo, iv, 10 mg/kg, 6 hr
  Plasma concentration, individual animal: 0.00 ng/mL
In vivo, iv, 10 mg/kg, 12 hr
  Brain concentration, individual animal: 0.00 ng/g
  Plasma concentration, individual animal: 0.00 ng/mL
In vivo, iv, 10 mg/kg, 24 hr
  Brain concentration, individual animal: 0.00 ng/g
  Plasma concentration, individual animal: 0.00 ng/mL
[8]
  concentration at 12 hr: 0 ng/g
  concentration at 24 hr: 0 ng/g
[9]
  concentration at 0.08 h: 1660 ng/g
  concentration at 0.35 h: 514 ng/g
  concentration at 1 h: 225 ng/g
  concentration at 3 h: 9.01 ng/g
  concentration at 6 hr: 5.13 ng/g
  concentration at 12 hr: 0 ng/g
  concentration at 24 hr: 0 ng/g
[10]
  concentration at 0.08 h: 1580 ng/mL
  concentration at 0.35 h: 535 ng/mL
  concentration at 1 h: 80.7 ng/mL
  concentration at 3 h: 5.64 ng/mL
  concentration at 6 hr: 0 ng/mL
  concentration at 12 hr: 0 ng/mL
  concentration at 24 hr: 0 ng/mL
[11]
  concentration at 0.08 hr: 2190 ng/mL
  concentration at 0.35 hr: 417 ng/mL
  concentration at 1 hr: 60.9 ng/mL
  concentration at 6 hr: 0 ng/mL
  concentration at 12 hr: 0 ng/mL
  concentration at 24 hr: 0 ng/mL
In vivo, po, 10 mg/kg
  Brain concentrations quantifiable up to: up to 12 hr
  Plasma concentrations quantifiable up to: up to 6 hr
In vivo, po, 10 mg/kg, 0.08 h
  Brain concentration, individual animal: 115.35 ng/g
In vivo, po, 10 mg/kg, 3 h
  Mean plasma conc.: 3.35^f ng/mL
In vivo, po, 10 mg/kg, 12 h
  Plasma concentration, individual animal: 0.00 ng/mL
In vivo, po, 10 mg/kg, 24 h
  Plasma concentration, individual animal: 0.00 ng/mL
[12]
  concentration at 0.08 h: 221 ng/g
  concentration at 24 h: 0 ng/g
[13]
  concentration at 0.08 h: 187 ng/g
  concentration at 0.35 h: 254 ng/g
  concentration at 1 h: 48.9 ng/g
  concentration at 3 h: 5.78 ng/g
  concentration at 6 h: 4.52 ng/g
  concentration at 12 h: 3.9 ng/g
  concentration at 24 h: 0 ng/g
[14]
  concentration at 0.08 h: 175 ng/mL
  concentration at 0.35 h: 138 ng/mL
  concentration at 1 h: 29.3 ng/mL
  concentration at 3 h: 3.35 ng/mL
  concentration at 6 h: 2.5 ng/mL
  concentration at 12 h: 0 ng/mL
  concentration at 24 h: 0 ng/mL
[15]
  concentration at 12 h: 0 ng/mL
  concentration at 24 h: 0 ng/mL
plasma, po, 10 mg/kg, PO 10 mg/kg, AUClast considered, read-out: Oral bioavailability, % F
  bioavailability: 20%
plasma, po, 10 mg/kg, summary data, read-out: Oral bioavailability
  bioavailability: 20%
plasma, IP 10 mg/kg
  Tmax: 4.8 min
plasma, IV 10 mg/kg, read-out: CL, plasma clearance
  clearance: 230 mL/min/kg
plasma, IV 10 mg/kg, read-out: T1/2, terminal elimination half-life (converted)
  half-life: 25.8 min
plasma, PO 10 mg/kg
  Tmax: 4.8 min
